Results from ChEMBL document CHEMBL4425174, “Design, synthesis and optimization of novel Alk5 (activin-like kinase 5) inhibitors” (Bioorg Med Chem Lett, 2016).

test: Oral bioavailability in rat; format: ADME, organism-based; settings: in vivo

bioavailability [%]	Compound
13	Fc1cc(F)c(-c2cc(Nc3ccncc3)c3cc[nH]c3n2)cc1Cl
65	Fc1ccc(-c2cc(Nc3ccncc3)c3cc[nH]c3n2)c(F)c1
17	C[C@H](O)CNC(=O)c1cnccc1Nc1cc(-c2cc(Cl)ccc2F)nc2[nH]ccc12
62	Cc1cnc(-c2cc(Cl)ccc2F)cc1-n1c(=O)n(CC(N)=O)c2cnccc21 [TP-008]
